Structures are written as SMILES.

For orientation: melting point means the temperature, or range, at which the solid turns liquid.

Test system in one data set: not given
Assay: not given
Settings: not given
`Cn1cc(C(=O)Nc2ccccc2OC(F)(F)C(F)Cl)c(C(F)F)n1` (stereo not drawn) [Compound I-4, N-[2-(2-chloro-1,1,2-trifluoroethoxy)phenyl]-3-difluoromethyl-1-methyl-1H-pyrazole-4-carboxamide] returned a melting point of 110 to 111 °C.

Compound `Cc1nc(C)c(C(=O)Nc2ccccc2OC(F)(F)C(F)F)s1` [Compound I-7, N-[2-(1,1,2,2-tetrafluoroethoxy)phenyl]-2,4-dimethylthiazol-5-ylcarboxamide] had a melting point of 134 to 135 °C. In the case of `O=C(Nc1ccccc1OC(F)(F)C(F)Cl)c1cccnc1Cl` (stereo not drawn) [Compound I-14, N-[2-(2-chloro-1,1,2-trifluoroethoxy)phenyl]-2-chloronicotinamide], the melting point lay within 73 to 76 °C. Still for that read-out and setting: the figure for `Cc1nc(C(F)(F)F)c(C(=O)Nc2ccccc2OC(F)(F)C(F)C(F)(F)F)s1` (stereo not drawn) [Compound I-8, N-[2-(1,1,2,3,3,3-hexafluoropropoxy)phenyl]-2-methyl-4-trifluoromethylthiazole-5-carboxamide] is 70 to 71 °C; for `Cc1nc(C(F)F)c(C(=O)Nc2ccccc2OC(F)(F)C(F)C(F)(F)F)s1` (stereo not drawn) [Compound I-11, N-[2-(1,1,2,3,3,3-hexafluoropropoxy)phenyl]-4-difluoromethyl-2-methylthiazole-5-carboxamide] it is 89 to 92 °C; for `Cn1cc(C(=O)Nc2ccccc2OC(F)(F)C(F)F)c(C(F)F)n1` [Compound I-5, N-[2-(1,1,2,2-tetrafluoroethoxy)phenyl]-3-difluoromethyl-1-methyl-1H-pyrazole-4-carboxamide] it is 117 to 119 °C. On the same count and under the same terms, the figure for `Cc1nc(C(F)(F)F)c(C(=O)Nc2ccccc2OC(F)(F)C(F)F)s1` [Compound I-6, N-[2-(1,1,2,2-tetrafluoroethoxy)phenyl]-2-methyl-4-trifluoromethylthiazol-5-yl-carboxamide] is 118 to 120 °C; for `Cn1cc(C(=O)Nc2ccccc2OC(F)(F)C(F)C(F)(F)F)c(C(F)(F)F)n1` (stereo not drawn) [Compound I-1, N-[2-(1,1,2,3,3,3-Hexafluoropropoxy)phenyl]-1-methyl-3-trifluoromethyl-1H-pyrazole-4-carboxamide] it is 91 to 93 °C; for `O=C(Nc1ccccc1OC(F)(F)C(F)F)c1cccnc1Cl` [Compound I-12, N-[2-(1,1,2,2-tetrafluoroethoxy)phenyl]-2-chloronicotinamide] it is 126 to 128 °C. On the same count and under the same terms, the figure for `O=C(Nc1ccccc1OC(F)(F)C(F)C(F)(F)F)c1cccnc1Cl` (stereo not drawn) [Compound I-13, N-[2-(1,1,2,3,3,3-hexafluoropropoxy)phenyl]-2-chloronicotinamide] is 85 to 91 °C. In turn, `Cn1cc(C(=O)Nc2ccccc2OC(F)(F)C(F)Cl)c(C(F)(F)F)n1` (stereo not drawn) [Compound I-3, N-[2-(2-Chloro-1,1,2-trifluoroethoxy)phenyl]-1-methyl-3-trifluoromethyl-1H-pyrazole-4-carboxamide] had a melting point of 94 to 95 °C. The same measure, in the same setting: the figure for `Cc1nc(C(F)(F)F)c(C(=O)Nc2ccccc2OC(F)(F)C(F)Cl)s1` (stereo not drawn) [Compound I-9, N-[2-(2-chloro-1,1,2-trifluoroethoxy)phenyl]-2-methyl-4-trifluoromethylthiazole-5-carboxamide] is 80 to 81 °C.

The next data set has as its system Erysiphe [syn. Blumeria] graminis forma specialis. tritici. As to the kind of experiment: Activity against mildew of wheat caused by Erysiphe [syn. Blumeria] graminis forma specialis. tritici. The format is in vivo. The conditions noted are these: 63 ppm, wheat seedlings, protective spray, assessed after 7 days; untreated plants 90% infected. As to the method: The active compounds were separately or jointly prepared as a stock solution comprising 25 mg of active compound which was made up to 10 ml using a mixture of acetone and/or dimethylsulfoxide and the emulsifier Uniperol® EL (wetting agent having emulsifying and dispersing action based on ethoxylated alkylphenols) in a volume ratio of solvent/emulsifier of 99 to 1. The mixture was then made up with water to 100 ml. This stock solution was diluted with the solvent/emulsifier/water mixture described to the desired concentration of active compounds. Leaves of potted wheat seedlings were sprayed to runoff point with an aqueous suspension having the active compound concentration stated below. The suspension was prepared as described above. 24 hours after the spray coating had dried on, the plants were dusted with spores of mildew of wheat (Erysiphe [syn. Blumeria] graminis forma specialis. tritici). The test plants were then placed in a greenhouse at temperatures between 20 and 24° C. and at 60 to 90% relative atmospheric humidity. After 7 days, the extent of the mildew development was determined visually in % infection of the entire leaf area.
In turn, `Cn1cc(C(=O)Nc2ccccc2OC(F)(F)C(F)F)c(C(F)(F)F)n1` [N-[2-(1,1,2,2-tetrafluoroethoxy)phenyl]-3-trifluormethyl-1-methylpyrazol-4-yl-carboxamide] showed an infection of 70%.

Staying with this data set, now noted: 250 ppm, wheat seedlings, protective spray, assessed after 7 days; untreated plants 80% infected.
In turn, `Cn1cc(C(=O)Nc2ccccc2OC(F)(F)C(F)F)c(C(F)(F)F)n1` [N-[2-(1,1,2,2-tetrafluoroethoxy)phenyl]-3-trifluormethyl-1-methylpyrazol-4-yl-carboxamide] showed an infection of 40%.

The subject of a further data set is Alternaria solani. As to the kind of experiment: Activity against early blight on tomatoes caused by Alternaria solani. The format is in vivo. Conditions: 250 ppm, tomato plants, protective spray, assessed after 5 days; untreated plants 90% infected. Here is the method:
The active compounds were separately or jointly prepared as a stock solution comprising 25 mg of active compound which was made up to 10 ml using a mixture of acetone and/or dimethylsulfoxide and the emulsifier Uniperol® EL (wetting agent having emulsifying and dispersing action based on ethoxylated alkylphenols) in a volume ratio of solvent/emulsifier of 99 to 1. The mixture was then made up with water to 100 ml. This stock solution was diluted with the solvent/emulsifier/water mixture described to the desired concentration of active compounds.
Leaves of potted tomato plants of the cultivar “Goldene Königin” were sprayed to runoff point with an aqueous suspension having the concentration of active compounds stated below. The next day, the leaves were infected with an aqueous spore suspension of Alternaria solani in a 2% biomalt solution having a density of 0.17×10^6 spores/ml. The plants were then placed in a water vapor-saturated chamber at temperatures between 20 and 22° C. After 5 days, the disease on the untreated, but infected control plants had developed to such an extent that the infection could be determined visually in %.
With `Cc1nn(C)cc1C(=O)Nc1ccccc1OC(F)(F)C(F)F` [N-[2-(1,1,2,2-tetrafluoroethoxy)phenyl]-1,3-dimethylpyrazol-4-yl-carboxamide], the infection was 60%.

The values above are taken from US20100222217A1, “Fungicidal N-[2-(Haloalkoxy)Phenyl]Heteroarylcarboxamides” (priority 2005, published 2010).
